Laboratory results published in patent EP4789666A1, “RNA M6A REGULATOR COMPOSITION, PREPARATION METHOD THEREFOR, AND USE THEREOF” (SHANGHAI MERNA THERAPEUTICS CO. LTD, priority 2023, dated 2025).

System: rat models with hand-foot skin reaction
Assay: Rat models with hand-foot skin reaction, topical ointment (incidence rate, histology, immunohistochemistry)
Type: in vivo, SD rats
Conditions: for Incidence rate, left paw: once daily 30 days; for Incidence rate, right paw: right paw with blank matrix ointment (self-control)
Method: After adaptive feeding for one week, SD rats (with a body weight of approximately 200 g) were randomly divided into groups with balanced body weight, with 12 rats in each group. Modeling drugs (including sorafenib, erlotinib, afatinib, and osimertinib) were respectively dissolved in a solution containing 5% of DMSO, 45% of PEG400, and 50% of H2O, and the modeling drugs were diluted to required concentrations and then administered once daily by gavage at doses shown in Table 3. After administration by gavage for 1 hour, 0.05 g of ointments containing different mass proportions of test compounds were evenly applied to left paws of the rats, a blank matrix ointment was applied to right paws of the rats to serve as a self-control, and no ointment was applied to the rats in a blank control group. After drug application, four limbs were continuously immobilized for 2 hours, then wiped with clean water to remove the residual drugs, removed from immobilization, and restored to free movement. The modeling drugs, the blank matrix ointment, and the ointments containing the test compounds were all administered once daily. After continuous administration for 30 days, the rats were euthanized, and paw plantar skin tissues were collected, fixed in 10% neutral formalin, […]. The ointments for the test compounds were prepared by mixing the compounds, white beeswax, white petrolatum, and light liquid paraffin in specific ratios (weight ratios of 3 ointments were respectively 1:18:58:23, 3:18:57:22, and 10:20:40:30). The blank matrix ointment was prepared by mixing white beeswax, white petrolatum, and light liquid paraffin in a specific ratio (weight ratio of 18:60:22).
Tissue staining: After dewaxing and rehydration, the paw plantar skin tissue sections of the above rats were stained in a hematoxylin solution for several minutes, cleaned, and placed in 1% acid alcohol for soaking until the sections faded to light blue-red. After cleaning with running water for 5 minutes, the sections were stained with eosin for 2-3 minutes, cleaned to remove excess dyes, dehydrated, then permeabilized by adding xylene for several minutes, and sealed and fixed with a neutral resin. The stratum corneum was observed under an optical microscope, and the thickness of the epidermal stratum corneum was measured using Dmetrix software.
Immunohistochemical staining: After dewaxing and hydration, the paw plantar skin tissue sections of the above rats were incubated with 3% H2O2 at room temperature for 30 minutes and blocked with 10% goat serum for 30 minutes after antigen retrieval. A KRT1 antibody (Abcam, ab93652) and a Loricrin antibody (Abcam, ab183646) were added dropwise, the sections were incubated overnight at 4°C, and an HRP secondary antibody (ZSGB-BIO, PV-6001) and a DAB kit (ZSG-BIO, ZLI9017) were added for color development. The sections were re-stained with hematoxylin, cleaned, and sealed and fixed with a neutral resin, and the expression amounts of KRT1 and Loricrin were observed under an optical microscope.
An incidence rate calculation method involves a proportion of animals in each group meeting the above criteria for determining successful modeling, that is, incidence rate = (number of successfully modeled rats/total number of rats in the group)*100%. […]

[1] = Afatinib 50 mg/kg model, 1% ointment on left paw
[2] = Afatinib 50 mg/kg model, 3% ointment on left paw
[3] = Afatinib 50 mg/kg model, 10% ointment on left paw
[4] = Erlotinib 70 mg/kg model, 1% ointment on left paw
[5] = Erlotinib 70 mg/kg model, 3% ointment on left paw
[6] = Erlotinib 70 mg/kg model, 10% ointment on left paw
[7] = Osimertinib 60 mg/kg model, 1% ointment on left paw
[8] = Osimertinib 60 mg/kg model, 3% ointment on left paw
[9] = Osimertinib 60 mg/kg model, 10% ointment on left paw
[10] = Sorafenib 100 mg/kg model, 1% ointment on left paw
[11] = Sorafenib 100 mg/kg model, 3% ointment on left paw
[12] = Sorafenib 100 mg/kg model, 10% ointment on left paw

NC(=O)[C@H]1CCCc2c1[nH]c1ccc(Cl)cc21 [Compound of formula (I), (S)-6-chloro-2,3,4,9-tetrahydro-1H-carbazole-carboxamide]
Incidence rate, left paw [1]: 3/12 (25%)
Incidence rate, left paw [2]: 2/12 (17%)
Incidence rate, left paw [3]: 0/12 (0%)
Incidence rate, right paw [1]: 9/12 (75%)
Incidence rate, right paw [2]: 4/12 (33%)
Incidence rate, right paw [3]: 3/12 (25%)
Incidence rate, left paw [4]: 3/12 (25%)
Incidence rate, left paw [5]: 2/12 (17%)
Incidence rate, left paw [6]: 1/12 (8%)
Incidence rate, right paw [4]: 10/12 (83%)
Incidence rate, right paw [5]: 5/12 (42%)
Incidence rate, right paw [6]: 4/12 (33%)
Incidence rate, left paw [7]: 2/12 (17%)
Incidence rate, left paw [8]: 2/12 (17%)
Incidence rate, left paw [9]: 0/12 (0%)
Incidence rate, right paw [7]: 8/12 (67%)
Incidence rate, right paw [8]: 4/12 (33%)
Incidence rate, right paw [9]: 3/12 (25%)
Incidence rate, left paw [10]: 2/12 (17%)
Incidence rate, left paw [11]: 2/12 (17%)
Incidence rate, left paw [12]: 0/12 (0%)
Incidence rate, right paw [10]: 9/12 (75%)
Incidence rate, right paw [11]: 4/12 (33%)
Incidence rate, right paw [12]: 4/12 (33%)
